Laboratory results taken from PubChem BioAssay (NCI).
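1) Cells in 96-well plates. 2) Compound, 48 h, 5 concentrations. 3) Linear interpolation between surrounding doses. 4) Unreached endpoint = highest concentration. GI50 = concentration required for 50% inhibition of growth. At the TGI there is no net growth.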

Tests used:
Assay in all cases: DTP human tumour cell line panel, 48 h
HOP-92 NSCLC = system: HOP-92 NSCLC
MOLT-4 leukemia = system: MOLT-4 leukemia
EKVX NSCLC = system: EKVX NSCLC
HT29 colon = system: HT29 colon
SR leukemia = system: SR leukemia
M14 melanoma = system: M14 melanoma
LOX IMVI melanoma = system: LOX IMVI melanoma
SF-268 CNS = system: SF-268 CNS
SF-295 CNS = system: SF-295 CNS
HCT-116 colon = system: HCT-116 colon
UO-31 renal = system: UO-31 renal
TK-10 renal = system: TK-10 renal
OVCAR-5 ovarian = system: OVCAR-5 ovarian
SK-MEL-2 melanoma = system: SK-MEL-2 melanoma
SK-OV-3 ovarian = system: SK-OV-3 ovarian
NCI-H23 lung = system: NCI-H23 lung
HS 578T breast = system: HS 578T breast
OVCAR-8 ovarian = system: OVCAR-8 ovarian
SK-MEL-5 melanoma = system: SK-MEL-5 melanoma
COLO 205 colon = system: COLO 205 colon
HCT-15 colon = system: HCT-15 colon
RXF 393 renal = system: RXF 393 renal
MALME-3M melanoma = system: MALME-3M melanoma
BT-549 breast = system: BT-549 breast
A498 renal = system: A498 renal
KM12 colon = system: KM12 colon
786-0 renal = system: 786-0 renal
DU-145 prostate = system: DU-145 prostate
RPMI-8226 leukemia = system: RPMI-8226 leukemia
SNB-75 CNS = system: SNB-75 CNS
IGROV1 ovarian = system: IGROV1 ovarian
SF-539 CNS = system: SF-539 CNS
NCI-H226 lung = system: NCI-H226 lung
HOP-62 NSCLC = system: HOP-62 NSCLC
SN12C renal = system: SN12C renal
NCI-H522 lung = system: NCI-H522 lung
K-562 leukemia = system: K-562 leukemia
CAKI-1 renal = system: CAKI-1 renal
SNB-19 CNS = system: SNB-19 CNS
SK-MEL-28 melanoma = system: SK-MEL-28 melanoma
MCF7 breast = system: MCF7 breast
MDA-MB-435 = system: MDA-MB-435
ACHN renal = system: ACHN renal
MDA-MB-231 breast = system: MDA-MB-231 breast
T-47D breast = system: T-47D breast
NCI/ADR-RES ovarian = system: NCI/ADR-RES ovarian
NCI-H460 lung = system: NCI-H460 lung
PC-3 prostate = system: PC-3 prostate
HCC-2998 colon = system: HCC-2998 colon
UACC-257 melanoma = system: UACC-257 melanoma
SW-620 colon = system: SW-620 colon
HL-60(TB) leukemia = system: HL-60(TB) leukemia
OVCAR-4 ovarian = system: OVCAR-4 ovarian
OVCAR-3 ovarian = system: OVCAR-3 ovarian
U251 CNS = system: U251 CNS
CCRF-CEM leukemia = system: CCRF-CEM leukemia
UACC-62 melanoma = system: UACC-62 melanoma
A549 NSCLC = system: A549 NSCLC

Compound: COc1cccc2c1C(=O)c1c(O)c3c(c(O)c1C2=O)CC(O)(/C(C)=N/NC(=O)CCCCC(=O)N/N=C(\C)C1(O)Cc2c(O)c4c(c(O)c2C(OC2CC(N)C(O)C(C)O2)C1)C(=O)c1c(OC)cccc1C4=O)CC3OC1CC(N)C(O)C(C)O1 (stereo not given)
- GI50 (HOP-92 NSCLC): 0.137 µM
- TGI (HOP-92 NSCLC): 2.45 µM
- GI50 (MOLT-4 leukemia): 0.0605 µM
- TGI (MOLT-4 leukemia): 0.694 µM
- GI50 (EKVX NSCLC): 0.418 µM
- TGI (EKVX NSCLC): 21 µM
- GI50 (HT29 colon): 0.181 µM
- TGI (HT29 colon): > 50 µM
- GI50 (SR leukemia): 0.00827 µM
- TGI (SR leukemia): 0.0365 µM
- GI50 (M14 melanoma): 0.225 µM
- TGI (M14 melanoma): 1.32 µM
- GI50 (LOX IMVI melanoma): 0.0803 µM
- GI50 (SF-268 CNS): 0.147 µM
- TGI (SF-268 CNS): 4.58 µM
- GI50 (SF-295 CNS): 0.125 µM
- TGI (SF-295 CNS): 0.689 µM
- GI50 (HCT-116 colon): 0.116 µM
- GI50 (UO-31 renal): 1.34 µM
- TGI (UO-31 renal): > 22 µM
- GI50 (TK-10 renal): 0.716 µM
- TGI (TK-10 renal): > 14.3 µM
- GI50 (OVCAR-5 ovarian): 0.862 µM
- TGI (OVCAR-5 ovarian): > 50 µM
- GI50 (SK-MEL-2 melanoma): 0.585 µM
- TGI (SK-MEL-2 melanoma): 1.79 µM
- GI50 (SK-OV-3 ovarian): 0.227 µM
- GI50 (NCI-H23 lung): 0.173 µM
- TGI (NCI-H23 lung): 1.12 µM
- GI50 (HS 578T breast): 0.263 µM
- TGI (HS 578T breast): 2.83 µM
- GI50 (OVCAR-8 ovarian): 0.215 µM
- TGI (OVCAR-8 ovarian): > 50 µM
- GI50 (SK-MEL-5 melanoma): 0.0974 µM
- TGI (SK-MEL-5 melanoma): 0.584 µM
- GI50 (COLO 205 colon): 0.0877 µM
- TGI (COLO 205 colon): 0.44 µM
- GI50 (HCT-15 colon): 2.89 µM
- TGI (HCT-15 colon): > 50 µM
- GI50 (RXF 393 renal): 0.209 µM
- TGI (RXF 393 renal): 0.831 µM
- GI50 (MALME-3M melanoma): 0.146 µM
- TGI (MALME-3M melanoma): 0.973 µM
- GI50 (BT-549 breast): 0.511 µM
- TGI (BT-549 breast): 4.35 µM
- GI50 (A498 renal): 0.567 µM
- TGI (A498 renal): 1.34 µM
- GI50 (KM12 colon): 0.361 µM
- TGI (KM12 colon): 6.12 µM
- GI50 (786-0 renal): 0.185 µM
- TGI (786-0 renal): 1.94 µM
- GI50 (DU-145 prostate): 0.163 µM
- TGI (DU-145 prostate): 1.93 µM
- GI50 (RPMI-8226 leukemia): 0.139 µM
- TGI (RPMI-8226 leukemia): 2.63 µM
- GI50 (SNB-75 CNS): 0.118 µM
- TGI (SNB-75 CNS): 0.867 µM
- GI50 (IGROV1 ovarian): 0.906 µM
- TGI (IGROV1 ovarian): > 21 µM
- GI50 (SF-539 CNS): 0.121 µM
- TGI (SF-539 CNS): 0.465 µM
- GI50 (NCI-H226 lung): 0.159 µM
- TGI (NCI-H226 lung): 1.23 µM
- GI50 (HOP-62 NSCLC): 0.218 µM
- TGI (HOP-62 NSCLC): 1.93 µM
- GI50 (SN12C renal): 0.178 µM
- TGI (SN12C renal): > 50 µM
- GI50 (NCI-H522 lung): 0.108 µM
- TGI (NCI-H522 lung): 0.811 µM
- GI50 (K-562 leukemia): 0.222 µM
- TGI (K-562 leukemia): > 23.3 µM
- GI50 (CAKI-1 renal): 0.265 µM
- TGI (CAKI-1 renal): 3.23 µM
- GI50 (SNB-19 CNS): 0.164 µM
- TGI (SNB-19 CNS): 1.57 µM
- GI50 (SK-MEL-28 melanoma): 0.473 µM
- TGI (SK-MEL-28 melanoma): 1.62 µM
- GI50 (MCF7 breast): 0.0459 µM
- TGI (MCF7 breast): > 50 µM
- GI50 (MDA-MB-435): 0.324 µM
- TGI (MDA-MB-435): 2.01 µM
- GI50 (ACHN renal): 0.188 µM
- TGI (ACHN renal): 1.69 µM
- GI50 (MDA-MB-231 breast): 0.749 µM
- TGI (MDA-MB-231 breast): > 50 µM
- GI50 (T-47D breast): 0.0931 µM
- TGI (T-47D breast): 2.07 µM
- GI50 (NCI/ADR-RES ovarian): 17.9 µM
- TGI (NCI/ADR-RES ovarian): > 50 µM
- GI50 (NCI-H460 lung): 0.0456 µM
- TGI (NCI-H460 lung): 10.9 µM
- GI50 (PC-3 prostate): 0.597 µM
- TGI (PC-3 prostate): 9.18 µM
- GI50 (HCC-2998 colon): 0.318 µM
- TGI (HCC-2998 colon): 1.14 µM
- GI50 (UACC-257 melanoma): 0.554 µM
- TGI (UACC-257 melanoma): 2.37 µM
- GI50 (SW-620 colon): 0.147 µM
- TGI (SW-620 colon): 33.4 µM
- GI50 (HL-60(TB) leukemia): 0.159 µM
- TGI (HL-60(TB) leukemia): 2.38 µM
- GI50 (OVCAR-4 ovarian): 0.401 µM
- TGI (OVCAR-4 ovarian): 8.43 µM
- GI50 (OVCAR-3 ovarian): 0.2 µM
- TGI (OVCAR-3 ovarian): 2.75 µM
- GI50 (U251 CNS): 0.147 µM
- TGI (U251 CNS): > 23.7 µM
- GI50 (CCRF-CEM leukemia): 0.207 µM
- TGI (CCRF-CEM leukemia): 18.4 µM

Compound: COC(=O)C1C(O)C(C)C(=O)C(C)/C=C\C=C(C)C(=O)Nc2c(C)c(OC(C)=O)c3c(c2O)C(=O)C(C)=C2OCOC(=C23)C(C)=CC(C)(O)C(O)C(C)C1O (stereo not given)
- TGI (HOP-92 NSCLC): > 100 µM
- TGI (MOLT-4 leukemia): > 100 µM
- TGI (EKVX NSCLC): > 100 µM
- TGI (HT29 colon): 70 µM
- TGI (SR leukemia): 87 µM
- TGI (M14 melanoma): 65.9 µM
- TGI (LOX IMVI melanoma): 57.8 µM
- TGI (SF-268 CNS): > 100 µM
- TGI (SF-295 CNS): > 100 µM
- TGI (HCT-116 colon): 63.9 µM
- TGI (UO-31 renal): > 100 µM
- TGI (OVCAR-5 ovarian): > 100 µM
- TGI (SK-MEL-2 melanoma): 86.1 µM
- TGI (SK-OV-3 ovarian): > 100 µM
- TGI (NCI-H23 lung): 35 µM
- TGI (HS 578T breast): > 100 µM
- TGI (OVCAR-8 ovarian): > 100 µM
- TGI (SK-MEL-5 melanoma): 27.6 µM
- TGI (COLO 205 colon): 49.3 µM
- TGI (HCT-15 colon): 45.6 µM
- TGI (RXF 393 renal): > 100 µM
- TGI (MALME-3M melanoma): 49.8 µM
- TGI (BT-549 breast): > 100 µM
- TGI (A498 renal): 82.2 µM
- TGI (KM12 colon): > 100 µM
- TGI (786-0 renal): > 100 µM
- TGI (DU-145 prostate): 28.2 µM
- TGI (RPMI-8226 leukemia): > 100 µM
- TGI (SNB-75 CNS): > 100 µM
- TGI (IGROV1 ovarian): 58.3 µM
- TGI (SF-539 CNS): > 100 µM
- TGI (NCI-H226 lung): > 100 µM
- TGI (HOP-62 NSCLC): > 100 µM
- TGI (SN12C renal): > 100 µM
- TGI (NCI-H522 lung): > 100 µM
- TGI (K-562 leukemia): 49.4 µM
- TGI (UACC-62 melanoma): 44.2 µM
- TGI (CAKI-1 renal): > 100 µM
- TGI (SNB-19 CNS): > 100 µM
- TGI (SK-MEL-28 melanoma): 60.3 µM
- TGI (MCF7 breast): 90.6 µM
- TGI (MDA-MB-435): > 100 µM
- TGI (ACHN renal): > 100 µM
- TGI (MDA-MB-231 breast): > 100 µM
- TGI (T-47D breast): > 100 µM
- TGI (NCI/ADR-RES ovarian): > 100 µM
- TGI (NCI-H460 lung): 93.5 µM
- TGI (PC-3 prostate): > 100 µM
- TGI (HCC-2998 colon): 53.2 µM
- TGI (UACC-257 melanoma): 32.9 µM
- TGI (A549 NSCLC): 61.2 µM
- TGI (SW-620 colon): > 100 µM
- TGI (HL-60(TB) leukemia): 48.4 µM
- TGI (OVCAR-3 ovarian): > 100 µM
- TGI (U251 CNS): > 100 µM
- TGI (CCRF-CEM leukemia): 54.2 µM
